Laboratory results: patent publication US20230295182A1, “SPIRO DERIVATIVES OF ALPHA-D-GALACTOPYRANOSIDES” (Idorsia Pharmaceuticals Ltd, priority 2020, published 2023)

How the values were obtained:
human Gal-3 (hGal-3) = human Gal-3 (hGal-3) (Homo sapiens (Human), UniProt P17931); assay: Competitive binding assay: biotinylated hGal-3 to microplate-adsorbed asialofetuin (ASF); details: Activity on hGal-3; binding to ASF-coated plates, 3 hours at 4° C.; mean values
How it was run: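 Biotinylated hGal-3 (300-1000 ng/mL) binding to plate-adsorbed asialofetuin, with DMSO-diluted compound added, incubated 3 h at 4 °C. After washing, bound protein detected with streptavidin-peroxidase (80 ng/mL, 1 h, 4 °C) and ABTS substrate, read spectrophotometrically. IC50 given as mean of several measurements.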

human Gal-1 (hGal-1) = human Gal-1 (hGal-1) (Homo sapiens, UniProt P09382); assay: Competitive binding assay: biotinylated hGal-1 to microplate-adsorbed asialofetuin (ASF); details: Activities on hGal-1; binding to ASF-coated plates, 3 hours at 4° C.; mean values; read-out: Gal-1 IC50
human Gal-1 (hGal-1), sequence (P09382 2-135 limits assumed): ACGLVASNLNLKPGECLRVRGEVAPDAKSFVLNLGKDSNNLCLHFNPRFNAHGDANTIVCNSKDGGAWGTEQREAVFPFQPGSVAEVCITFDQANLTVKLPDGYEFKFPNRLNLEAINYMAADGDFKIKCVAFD
How it was run: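 Plate-adsorbed asialofetuin is incubated 3 h at 4 °C with biotinylated hGal-1, optionally its all-serine-substituted cysteine variant, plus compound dilutions. ABTS color after 1 h streptavidin-peroxidase (80 ng/mL) at 4 °C reports binding. Reported IC50 is a mean across repeat runs.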

human Gal-3 (hGal-3), sequence (P17931 whole entry): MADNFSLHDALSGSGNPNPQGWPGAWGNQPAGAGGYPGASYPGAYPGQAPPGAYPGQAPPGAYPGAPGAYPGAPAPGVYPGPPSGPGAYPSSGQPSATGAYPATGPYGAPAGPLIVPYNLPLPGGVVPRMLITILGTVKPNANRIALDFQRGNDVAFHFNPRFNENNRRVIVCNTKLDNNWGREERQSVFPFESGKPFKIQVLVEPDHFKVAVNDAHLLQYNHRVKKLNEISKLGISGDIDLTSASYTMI

IC50 (human Gal-3 (hGal-3)) [nM]	IC50 (human Gal-1 (hGal-1)) [nM]	Compound
240	2400	CO[C@@H]1[C@@H](n2cc(-c3cc(F)c(F)c(F)c3)nn2)[C@@H](O)[C@@H](CO)O[C@@H]1CC1=NOC2(CCC(NC3CC3)CC2)C1 (stereo partly drawn) [Example 2.16, (2R,3R,4S,5R,6R)-6-((8-(cyclopropylamino)-1-oxa-2-azaspiro[4.5]dec-2-en-3-yl)methyl)-2-(hydroxymethyl)-5-methoxy-4-(4-(3,4,5-trifluorophenyl)-1H-1,2,3-triazol-1-yl)tetrahydro-2H-pyran-3-ol]
110	1200	CO[C@@H]1[C@@H](n2cc(-c3ccc(Cl)c(F)c3F)nn2)[C@@H](O)[C@@H](CO)O[C@@H]1CC1=NOC2(CCC(C#N)CC2)C1 (stereo partly drawn) [Example 1.49, 3-(((2R,3R,4S,5R,6R)-4-(4-(4-chloro-2,3-difluorophenyl)-1H-1,2,3-triazol-1-yl)-5-hydroxy-6-(hydroxymethyl)-3-methoxytetrahydro-2H-pyran-2-yl)methyl)-1-oxa-2-azaspiro[4.5]dec-2-ene-8-carbonitrile]
450	4900	CO[C@@H]1[C@@H](n2cc(-c3cc(F)c(F)c(F)c3)nn2)[C@@H](O)[C@@H](CO)O[C@@H]1CC1=NOC2(CCC(F)(F)CC2)C1 [Example 1.24, (2R,3R,4S,5R,6R)-6-((8,8-difluoro-1-oxa-2-azaspiro[4.5]dec-2-en-3-yl)methyl)-2-(hydroxymethyl)-5-methoxy-4-(4-(3,4,5-trifluorophenyl)-1H-1,2,3-triazol-1-yl)tetrahydro-2H-pyran-3-ol]
950	2700	CO[C@@H]1[C@@H](n2cc(-c3cc(F)c(F)c(F)c3)nn2)[C@@H](O)[C@@H](CO)O[C@@H]1CC1=NOC2(CCCC2)C1 [Example 1.09, (2R,3R,4S,5R,6R)-6-((1-oxa-2-azaspiro[4.4]non-2-en-3-yl)methyl)-2-(hydroxymethyl)-5-methoxy-4-(4-(3,4,5-trifluorophenyl)-1H-1,2,3-triazol-1-yl)tetrahydro-2H-pyran-3-ol]
160	6000	CO[C@@H]1[C@@H](n2cc(-c3ccc(Br)c(F)c3F)nn2)[C@@H](O)[C@@H](CO)O[C@@H]1CC1=NOC2(CCCCC2)C1 [Example 1.17, (2R,3R,4S,5R,6R)-6-((1-oxa-2-azaspiro[4.5]dec-2-en-3-yl)methyl)-4-(4-(4-bromo-2,3-difluorophenyl)-1H-1,2,3-triazol-1-yl)-2-(hydroxymethyl)-5-methoxytetrahydro-2H-pyran-3-ol]
90	1600	CO[C@@H]1[C@@H](n2cc(-c3ccc(Cl)c(F)c3F)nn2)[C@@H](O)[C@@H](CO)O[C@@H]1CC1=NO[C@]2(CC[C@@H](C#N)CC2)C1 [Example 1.60, (5s,8S)-3-(((2R,3R,4S,5R,6R)-4-(4-(4-chloro-2,3-difluorophenyl)-1H-1,2,3-triazol-1-yl)-5-hydroxy-6-(hydroxymethyl)-3-methoxytetrahydro-2H-pyran-2-yl)methyl)-1-oxa-2-azaspiro[4.5]dec-2-ene-8-carbonitrile]
280	7200	CO[C@@H]1[C@@H](n2cc(-c3cc(F)c(F)c(F)c3)nn2)[C@@H](O)[C@@H](CO)O[C@@H]1CC1=NOC2(CCC(NCC(F)F)CC2)C1 (stereo partly drawn) [Example 2.15, (2R,3R,4S,5R,6R)-6-((8-((2,2-difluoroethyl)amino)-1-oxa-2-azaspiro[4.5]dec-2-en-3-yl)methyl)-2-(hydroxymethyl)-5-methoxy-4-(4-(3,4,5-trifluorophenyl)-1H-1,2,3-triazol-1-yl)tetrahydro-2H-pyran-3-ol]
320	5700	CO[C@@H]1[C@@H](n2cc(-c3cc(F)c(F)c(F)c3)nn2)[C@@H](O)[C@@H](CO)O[C@@H]1CC1=NOC2(CCNCC2)C1 [Example 1.07, (2R,3R,4S,5R,6R)-6-((1-oxa-2,8-diazaspiro[4.5]dec-2-en-3-yl)methyl)-2-(hydroxymethyl)-5-methoxy-4-(4-(3,4,5-trifluorophenyl)-1H-1,2,3-triazol-1-yl)tetrahydro-2H-pyran-3-ol]
19	340	CCOC(=O)N[C@H]1CC[C@]2(CC1)CC(C[C@H]1O[C@H](CO)[C@H](O)[C@H](n3cc(-c4ccc(Cl)c(F)c4F)nn3)[C@H]1OC)=NO2 [Example 2.11, ethyl ((5r,8R)-3-(((2R,3R,4S,5R,6R)-4-(4-(4-chloro-2,3-difluorophenyl)-1H-1,2,3-triazol-1-yl)-5-hydroxy-6-(hydroxymethyl)-3-methoxytetrahydro-2H-pyran-2-yl)methyl)-1-oxa-2-azaspiro[4.5]dec-2-en-8-yl)carbamate]
2000	6900	CO[C@@H]1[C@@H](n2cc(-c3cc(F)c(F)c(F)c3)nn2)[C@@H](O)[C@@H](CO)O[C@@H]1CC1=NO[C@]2(CC[C@@H](C(C)C)CC2)C1 [Example 1.28, (2R,3R,4S,5R,6R)-2-(hydroxymethyl)-6-(((5s,8S)-8-isopropyl-1-oxa-2-azaspiro[4.5]dec-2-en-3-yl)methyl)-5-methoxy-4-(4-(3,4,5-trifluorophenyl)-1H-1,2,3-triazol-1-yl)tetrahydro-2H-pyran-3-ol]
450	3600	CO[C@@H]1[C@@H](n2cc(-c3cc(F)c(F)c(F)c3)nn2)[C@@H](O)[C@@H](CO)O[C@@H]1CC1=NO[C@]2(CC[C@@H](NC(C)=O)CC2)C1 [Example 2.05, N-((5s,8S)-3-(((2R,3R,4S,5R,6R)-5-hydroxy-6-(hydroxymethyl)-3-methoxy-4-(4-(3,4,5-trifluorophenyl)-1H-1,2,3-triazol-1-yl)tetrahydro-2H-pyran-2-yl)methyl)-1-oxa-2-azaspiro[4.5]dec-2-en-8-yl)acetamide]
620	2200	CO[C@@H]1[C@@H](n2cc(-c3cc(F)c(F)c(F)c3)nn2)[C@@H](O)[C@@H](CO)O[C@@H]1CC1=NOC2(CCC2)C1 [Example 1.10, (2R,3R,4S,5R,6R)-6-((5-oxa-6-azaspiro[3.4]oct-6-en-7-yl)methyl)-2-(hydroxymethyl)-5-methoxy-4-(4-(3,4,5-trifluorophenyl)-1H-1,2,3-triazol-1-yl)tetrahydro-2H-pyran-3-ol]
60	1800	CO[C@@H]1[C@@H](n2cc(-c3ccc(Cl)c(F)c3F)nn2)[C@@H](O)[C@@H](CO)O[C@@H]1CC1=NO[C@]2(CC[C@@H](NC(=O)OC(C)(C)C)CC2)C1 [Example 1.46, tert-butyl ((5s,8S)-3-(((2R,3R,4S,5R,6R)-4-(4-(4-chloro-2,3-difluorophenyl)-1H-1,2,3-triazol-1-yl)-5-hydroxy-6-(hydroxymethyl)-3-methoxytetrahydro-2H-pyran-2-yl)methyl)-1-oxa-2-azaspiro[4.5]dec-2-en-8-yl)carbamate]
130	220	CO[C@@H]1[C@@H](n2cc(-c3ccc(F)c(F)c3F)nn2)[C@@H](O)[C@@H](CO)O[C@@H]1CC1=NO[C@]2(CC[C@H](C#N)CC2)C1 [Example 1.59, (5r,8R)-3-(((2R,3R,4S,5R,6R)-5-hydroxy-6-(hydroxymethyl)-3-methoxy-4-(4-(2,3,4-trifluorophenyl)-1H-1,2,3-triazol-1-yl)tetrahydro-2H-pyran-2-yl)methyl)-1-oxa-2-azaspiro[4.5]dec-2-ene-8-carbonitrile]
240	1900	CO[C@@H]1[C@@H](n2cc(-c3cc(F)c(F)c(F)c3)nn2)[C@@H](O)[C@@H](CO)O[C@@H]1CC1=NOC2(CCCCC2)C1 [Example 1.08, (2R,3R,4S,5R,6R)-6-((1-oxa-2-azaspiro[4.5]dec-2-en-3-yl)methyl)-2-(hydroxymethyl)-5-methoxy-4-(4-(3,4,5-trifluorophenyl)-1H-1,2,3-triazol-1-yl)tetrahydro-2H-pyran-3-ol]
380	1600	CO[C@@H]1[C@@H](n2cc(-c3cc(F)c(F)c(F)c3)nn2)[C@@H](O)[C@@H](CO)O[C@@H]1CC1=NO[C@]2(CC[C@@H](NCC(F)F)CC2)C1 [Example 2.21, (2R,3R,4S,5R,6R)-6-(((5s,8S)-8-((2,2-difluoroethyl)amino)-1-oxa-2-azaspiro[4.5]dec-2-en-3-yl)methyl)-2-(hydroxymethyl)-5-methoxy-4-(4-(3,4,5-trifluorophenyl)-1H-1,2,3-triazol-1-yl)tetrahydro-2H-pyran-3-ol]
61	4200	CC(=O)O[C@@H]1[C@@H](n2cc(-c3ccc(C)c(F)c3F)nn2)[C@@H](O)[C@@H](CO)O[C@@H]1CC1=NOC2(CCOCC2)C1 [Example 1.01, (2R,3R,4S,5R,6R)-2-((1,8-dioxa-2-azaspiro[4.5]dec-2-en-3-yl)methyl)-4-(4-(2,3-difluoro-4-methylphenyl)-1H-1,2,3-triazol-1-yl)-5-hydroxy-6-(hydroxymethyl)tetrahydro-2H-pyran-3-yl acetate]
160	6400	CO[C@@H]1[C@@H](n2cc(-c3cc(F)c(F)c(F)c3)nn2)[C@@H](O)[C@@H](CO)O[C@@H]1CC1=NOC2(CCCCCC2)C1 [Example 1.38, (2R,3R,4S,5R,6R)-6-((1-oxa-2-azaspiro[4.6]undec-2-en-3-yl)methyl)-2-(hydroxymethyl)-5-methoxy-4-(4-(3,4,5-trifluorophenyl)-1H-1,2,3-triazol-1-yl)tetrahydro-2H-pyran-3-ol]
590	1600	CO[C@@H]1[C@@H](n2cc(-c3cc(F)c(F)c(F)c3)nn2)[C@@H](O)[C@@H](CO)O[C@@H]1CC1=NO[C@]2(CC[C@@H](NC3CC3)CC2)C1 [Example 2.23, (2R,3R,4S,5R,6R)-6-(((5s,8S)-8-(cyclopropylamino)-1-oxa-2-azaspiro[4.5]dec-2-en-3-yl)methyl)-2-(hydroxymethyl)-5-methoxy-4-(4-(3,4,5-trifluorophenyl)-1H-1,2,3-triazol-1-yl)tetrahydro-2H-pyran-3-ol]
